These results are taken from article PMC9220351, “Evaluation of a Conformationally Constrained Indole Carboxamide as a Potential Efflux Pump Inhibitor in Pseudomonas aeruginosa” (Antibiotics, 2022).

In data set [1] the test system is P. aeruginosa K3698 (∆oprM). As to the kind of experiment: MIC / potentiation assay, strain K3698. The data set is classed as cell-based, Pseudomonas aeruginosa. To be noted: Pseudomonas aeruginosa, read-out: MICs K3698 (∆oprM). An excerpt:
P. aeruginosa ATCC 27853 was obtained from the American Type Culture Collection (ATCC; Manassas, VA, USA). P. aeruginosa multidrug-resistant isolates were obtained from the CDC and FDA Antibiotic Resistance Isolate Bank (Atlanta, GA, USA). P. aeruginosa DA7232 (gyrA-T83I, parC-S80L) was a kind gift from Prof. Dan I. Andersson, Uppsala University, Uppsala, Sweden, and has been characterized elsewhere. P. aeruginosa strains K767 (WT), K1455 (mexAB-oprM overexpressed), K2415 (mexXY-oprM overexpressed), and K3698 (oprM∆) were obtained from Prof. Keith Poole, Queen’s University, Kingston, Ontario, Canada and have been characterized elsewhere. Bacterial cells were grown in cation-adjusted Mueller Hinton (CAMH) media, brain heart infusion broth (BHI), or tryptic soy agar (TSA) plates were all obtained from Becton, Dickinson, and Company (BD; Franklin Lakes, NJ, USA). […] Azithromycin was purchased from Tokyo Chemical Industry (Portland, OR, USA). […] Ethidium bromide (EtBr) and glucose were purchased from VWR (Radnor, PA, USA). MC-04,124 and TXA01182 were synthesized at TAXIS Pharmaceuticals. Carbonyl cyanide 3-chlorophenylhydrazone (CCCP) was purchased from Enzo Life Sciences (Farmingdale, NY, USA). DiOC2 (3) and propidium iodide were obtained from Thermo Fisher Scientific (Waltham, MA, USA).
MIC assays were performed as described previously.

Data set [2] has as its system P. aeruginosa ATCC 27853 efflux of EtBr. The data set is described as follows: Ethidium bromide (EtBr) efflux inhibition assay. It is filed as cell-based, Pseudomonas aeruginosa. To be noted: fluorescence, after glucose activation. The procedure: The ability of TXA09155 to inhibit efflux in P. aeruginosa was studied using two quantitative assays to establish efflux inhibition as the MOA. In the first assay, the efflux of ethidium bromide (EtBr) by P. aeruginosa cells is studied in the presence of different concentrations of TXA09155. Wild-type P. aeruginosa ATCC 27853 cells were incubated with EtBr to allow for the intracellular accumulation and were treated with CCCP to inhibit active efflux. […] Following activation by the addition of glucose, the efflux of EtBr can be followed in real time as a decrease in fluorescence based on the concentration of TXA09155.
Efflux of EtBr from P. aeruginosa in the presence of TXA09155 was carried out as described previously.

Data set [3] deals with P. aeruginosa ATCC 27853 inner membrane potential. The data set is described as follows: DiOC2 (3) membrane polarization assay. It is filed as cell-based, Pseudomonas aeruginosa. To be noted: 20 to 0.01 μM. The method, then:
RND efflux pumps couple the influx of protons from the proton gradient across the inner membrane to the efflux of drugs and other molecules. […] The effect of TXA09155 on the proton gradient of P. aeruginosa was assessed with a fluorescence-based 3,3′-diethyloxacarbocyanine iodide [DiOC2 (3)] assay that was developed to measure membrane potential changes in Gram-negative bacteria. DiOC2 (3) is a positively charged fluorescent dye that accumulates within cells in a charge-dependent manner, shifting its fluorescence spectrum from green to red at high concentrations due to concentration-dependent dye stacking. […] Azithromycin and CCCP were used as […] controls, respectively.
P. aeruginosa membrane polarization assays were conducted as described previously using strain ATCC 27853. […] DiOC2 (3) fluorescence was recorded in a microplate reader using 450 nm excitation and 670 nm emission (for red fluorescence). Background correction for each concentration of each compound was obtained from reading the fluorescence of compounds in the resuspension buffer without cells. After background correction, fluorescence was normalized to that of the vehicle (DMSO) only. After a 30 min incubation at 37 °C, DiOC2 (3) fluorescence was recorded using a SpectraMax iD5 spectrophotometer (Molecular Devices, San Jose, CA, USA) following excitation at 450 nm. […]

Another data set has as its system P. aeruginosa ATCC 27853. The data set is described as follows: Intracellular ATP levels. The data set is classed as cell-based, Pseudomonas aeruginosa. To be noted: 1/4th and 1/8th MIC, 3 h. The procedure:
P. aeruginosa intracellular ATP levels were determined as described previously using an ATP determination kit (catalog number A22066; Thermo Fisher Scientific, Waltham, MA, USA). […] After treatment, the cells were lysed in chloroform, which was subsequently removed by boiling at 80 °C. The persistent ATP from cell lysate was measured in a 96-well black flat-bottom plate and plotted as relative luminescence units. […] Error bars represent the standard deviation of triplicates.

A short description of another data set: Solubility at pH 7.4. The data set is classed as physicochemical. To be noted: pH 7.4, aqueous buffer.
The nature of data set [4]: Metabolic stability in rat liver microsomes. The data set is classed as in vitro ADME. The method, then:
The metabolic stability of TXA09155 was determined in human, mouse, and rat liver microsomes by Eurofins (St. Charles, MO, USA) using the substrate depletion method (in vitro half-life (t1/2) method). Quantification was performed by LC/MS/MS. In this assay, depletion of the parent compound is measured over time to determine the compound’s in vitro t1/2 and hepatic extraction ratios (ER). This is used to predict metabolic clearance. […] This assay utilizes electrophysiology measurements on the electric current passing through the hERG channel heterologously expressed in a stable CHO cell line. Channels are open by a hERG-specific voltage protocol, and the compound effects are directly characterized by their block of the hERG current. The assay is performed on an automated platform, Q-Patch.

The next data set addresses CYP1A2 (Homo sapiens, UniProt P05177). As to the kind of experiment: CYP inhibition. It is filed as in vitro ADME. To be noted: read-out: CYP Inhibition IC50, CYP 1A2.
The target in a further data set is CYP3A4 (Homo sapiens, UniProt P08684). As to the kind of experiment: CYP inhibition. It is filed as in vitro ADME. To be noted: read-out: CYP Inhibition IC50, CYP 3A4.
Sequence of CYP3A4 (P08684 whole entry): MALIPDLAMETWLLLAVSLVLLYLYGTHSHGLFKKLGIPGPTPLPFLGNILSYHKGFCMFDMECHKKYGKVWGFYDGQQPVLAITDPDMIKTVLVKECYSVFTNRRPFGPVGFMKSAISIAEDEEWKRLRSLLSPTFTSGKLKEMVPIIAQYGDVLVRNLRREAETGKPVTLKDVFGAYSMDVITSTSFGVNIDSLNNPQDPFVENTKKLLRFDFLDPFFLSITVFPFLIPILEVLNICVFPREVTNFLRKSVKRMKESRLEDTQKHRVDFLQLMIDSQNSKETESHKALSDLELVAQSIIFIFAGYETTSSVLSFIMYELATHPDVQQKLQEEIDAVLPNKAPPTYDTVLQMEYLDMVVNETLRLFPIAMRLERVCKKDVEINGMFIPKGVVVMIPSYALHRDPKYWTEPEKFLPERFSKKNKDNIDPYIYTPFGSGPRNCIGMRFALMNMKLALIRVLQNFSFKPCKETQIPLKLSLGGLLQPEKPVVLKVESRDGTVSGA
Data set [5] can be described thus: CellTiterGlo cytotoxicity assay. To be noted: human, 293T cells. The data set is classed as cell-based.
In another data set the test system is human RBCs. As to the kind of experiment: Hemolytic activity. It is filed as cell-based. To be noted: 12.5 to 100 µM.

Sequence of CYP1A2 (P05177 whole entry): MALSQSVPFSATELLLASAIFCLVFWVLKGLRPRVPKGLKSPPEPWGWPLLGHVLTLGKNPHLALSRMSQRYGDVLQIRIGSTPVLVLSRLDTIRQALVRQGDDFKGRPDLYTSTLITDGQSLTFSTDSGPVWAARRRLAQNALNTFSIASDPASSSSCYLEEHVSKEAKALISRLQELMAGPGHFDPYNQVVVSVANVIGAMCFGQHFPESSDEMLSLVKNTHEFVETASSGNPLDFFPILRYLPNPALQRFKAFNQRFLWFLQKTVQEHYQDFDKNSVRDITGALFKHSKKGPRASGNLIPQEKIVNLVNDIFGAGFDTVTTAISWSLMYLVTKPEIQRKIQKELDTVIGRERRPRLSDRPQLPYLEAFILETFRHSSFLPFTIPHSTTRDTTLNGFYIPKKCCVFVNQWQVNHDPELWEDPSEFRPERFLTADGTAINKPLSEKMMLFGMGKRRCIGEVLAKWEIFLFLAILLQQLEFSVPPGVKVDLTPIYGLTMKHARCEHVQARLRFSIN

In the case of `C[C@H]1COc2c(N3CCN(C)CC3)c(F)cc3c(=O)c(C(=O)O)cn1c23` [Levofloxacin], the MIC in data set [1] is 0.031 µg/mL.

As to `Cl.NC[C@@H]1CN[C@H](CNC(=O)c2cc3ccc(-c4ccc(F)cc4)cc3[nH]2)C1` [TXA09155, N-(((2S,4R)-4-(aminomethyl)pyrrolidine-2-yl)methyl)-6-(4-fluorophenyl)-1H-indole-2-carboxamide hydrochloride salt], in data set [2], the “inhibition of EtBr efflux” value was “concentration-dependent inhibition”. Also, the membrane depolarization entry in data set [3] is listed as “did not lead to membrane depolarization”. Besides, the ATP depletion result with P. aeruginosa ATCC 27853 is “did not result in ATP depletion”. The molecule also yielded a solubility in the data set “Solubility at pH 7.4” of more than 155 µM. In addition, the “HLM and RLM Metabolic Stability (RLM)” value in data set [4] is recorded as more than 60%. In addition, the IC50 at CYP1A2 was more than 100 µM; on CYP3A4 it was 28.5 µM; in [5] it was more than 40 µM. In addition, the hemolytic activity entry in the data set on human RBCs was “did not display hemolytic activity”.
